Where a name gives a salt, the structure may show the parent alone.
System: dissociated bovine parathyroid cells
Assay: Stimulation of PTH secretion
Type: cell-based
Details: Bos taurus, 0.5 h, 0.5 mM Ca2+, 30 minutes
Method: This example illustrates the ability of different calcilytic compounds to exert a biological effect on PTH secretion. PTH secretion was determined using dissociated bovine parathyroid cells as described below for Compounds 32, 33, and 38. […] Stimulation of PTH secretion was assayed as follows: Parathyroid cell buffer (PCB) contains (mM): NaCl, 126; KCl, 4; MgSO4, 1; K2HPO4/KH2PO4, 0.7; Na-Hepes, pH 7.45, and variable amounts of CaCl2 as specified (reagent grade). PCB was typically supplemented with bovine serum albumin (BSA fraction V; ICN Biomedicals, Inc., Costa Mesa, Calif.; catalog #81-003) and 1 mg/mL of D-glucose (reagent grade) as indicated. Percoll purification buffer was prepared immediately before use by mixing 8 mL of Percoll (Pharmacia LKB, Alameda, Calif.; catalog #17-0891-01) and 7 mL of a twice-concentrated PCB solution without phosphate and containing 2 mM CaCl2. Parathyroid glands were obtained from calves within minutes of slaughter at an abattoir and shipped via overnight express on ice in PCB containing 1.25 mM CaCl2. The glands were trimmed and minced in ice-cold PCB containing 1.25 mM CaCl2, 1 mg/mL of D-glucose, and 2% BSA. […]

EC50 | Compound
< 10 µM | COc1ccc(CC(C)(C)NC[C@@H](O)COc2ccccc2)cc1 (single isomer, unassigned) [Compound 32, (R) or (S)—N-(2-Hydroxy-3-phenoxypropyl)-1,1-dimethyl-2-(4-methoxyphenyl)ethylamine Hydrochloride]
< 10 µM | COc1ccc(CC(C)(C)NCC(O)COc2cccc(OC)c2)cc1 (centres unmarked) [Compound 38, N-[2-Hydroxy-3-(3-methoxyphenoxy)propyl]-1,1-dimethyl-2-(4-methoxyphenyl)ethylamine Hydrochloride]
